From patent publication US9932340B2, “Substituted indoles” (AbbVie Inc., priority 2014, dated 2018)

Molecular target: SUV420H1 enzyme (Homo sapiens, UniProt Q4FZB7)
Assay: TR-FRET SAH SUV420H1 enzyme inhibition assay
Assay type: biochemical
Settings: Histone Peptide H4(8-30)me1 and SAM, overnight at room temp, TR-FRET detection of SAH, read-out: TR-FRET SAH_SUV420H1 IC50
Method in brief: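 SUV420H1 (90 nM) preincubated 30 min with compound (3-fold dilutions, 50 to 0.00075 μM), then H4(8-30)me1 peptide 5 nM and SAM 4 nM added, overnight at room temp. SAH product detected by TR-FRET with Tb anti-SAH antibody and Oregon Green-SAH in RIPA buffer, 4 h; IC50 from Hill fit, asymptotes fixed 0-100%.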

Sequence of SUV420H1 enzyme (Q4FZB7 whole entry): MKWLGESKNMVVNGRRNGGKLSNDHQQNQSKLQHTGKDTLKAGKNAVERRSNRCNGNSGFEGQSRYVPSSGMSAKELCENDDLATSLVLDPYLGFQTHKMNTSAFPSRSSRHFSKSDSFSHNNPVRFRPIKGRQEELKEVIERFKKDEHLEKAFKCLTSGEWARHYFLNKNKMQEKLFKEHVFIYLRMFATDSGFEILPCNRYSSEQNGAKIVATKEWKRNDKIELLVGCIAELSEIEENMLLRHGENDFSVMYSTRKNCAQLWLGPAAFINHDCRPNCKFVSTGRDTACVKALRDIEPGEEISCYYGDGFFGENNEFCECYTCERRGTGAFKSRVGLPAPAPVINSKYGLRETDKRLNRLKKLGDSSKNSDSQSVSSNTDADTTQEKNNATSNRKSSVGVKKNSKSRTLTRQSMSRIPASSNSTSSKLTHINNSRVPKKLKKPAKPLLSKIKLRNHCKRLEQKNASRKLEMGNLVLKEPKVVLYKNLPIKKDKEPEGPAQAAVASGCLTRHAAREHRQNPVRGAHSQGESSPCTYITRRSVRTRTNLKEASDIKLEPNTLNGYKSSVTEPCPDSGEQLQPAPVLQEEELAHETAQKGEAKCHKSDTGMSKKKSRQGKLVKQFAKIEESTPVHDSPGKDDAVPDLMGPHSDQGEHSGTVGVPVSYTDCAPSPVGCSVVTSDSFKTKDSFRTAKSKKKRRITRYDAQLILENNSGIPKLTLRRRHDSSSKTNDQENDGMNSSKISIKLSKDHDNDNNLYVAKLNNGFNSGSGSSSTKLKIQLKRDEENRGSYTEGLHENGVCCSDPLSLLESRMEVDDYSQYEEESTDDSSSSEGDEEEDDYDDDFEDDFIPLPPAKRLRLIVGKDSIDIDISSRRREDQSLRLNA

| SMILES | IC50 |
| --- | --- |
| Nc1ncnc2c1ncn2Cc1cc(Cl)cc2cc(CNC(=O)[C@H]3CCCN3)[nH]c12 [Example 116, (2R)—N-({7-[(6-amino-9H-purin-9-yl)methyl]-5-chloro-1H-indol-2-yl}methyl)pyrrolidine-2-carboxamide] | 8.28 µM |
| Nc1ncnc2c1ncn2Cc1cc(Cl)cc2cc(CNC(=O)[C@@H]3CCC(=O)N3)[nH]c12 [Example 117, (2S)—N-({7-[(6-amino-9H-purin-9-yl)methyl]-5-chloro-1H-indol-2-yl}methyl)-5-oxopyrrolidine-2-carboxamide] | 14.1 µM |
| Nc1ncnc2c1ncn2Cc1cc(Cl)cc2cc(CNC(=O)CC3CCCC3)[nH]c12 [Example 121, N-({7-[(6-amino-9H-purin-9-yl)methyl]-5-chloro-1H-indol-2-yl}methyl)-2-cyclopentylacetamide] | 2.56 µM |
| CC(C)(C)OC(=O)N1CCC[C@H]1C(=O)NCc1cc2cc(Cl)cc(Cn3cnc4c(N)ncnc43)c2[nH]1 [Example 123, tert-butyl (2S)-2-[({7-[(6-amino-9H-purin-9-yl)methyl]-5-chloro-1H-indol-2-yl}methyl)carbamoyl]pyrrolidine-1-carboxylate] | 44.9 µM |
| CC(C)(C)OC(=O)N1CCC[C@@H]1C(=O)NCc1cc2cc(Cl)cc(Cn3cnc4c(N)ncnc43)c2[nH]1 [Example 124, tert-butyl (2R)-2-[({7-[(6-amino-9H-purin-9-yl)methyl]-5-chloro-1H-indol-2-yl}methyl)carbamoyl]pyrrolidine-1-carboxylate] | 23.9 µM |
| Nc1ncnc2c1ncn2Cc1cc(Cl)cc2cc(CNC(=O)CN3CCOCC3)[nH]c12 [Example 127, N-({7-[(6-amino-9H-purin-9-yl)methyl]-5-chloro-1H-indol-2-yl}methyl)-2-(morpholin-4-yl)acetamide] | 6 µM |
| CC1(C(=O)NCc2cc3cc(Cl)cc(Cn4cnc5c(N)ncnc54)c3[nH]2)CCCCC1 [Example 129, N-({7-[(6-amino-9H-purin-9-yl)methyl]-5-chloro-1H-indol-2-yl}methyl)-1-methylcyclohexanecarboxamide] | 28.4 µM |
| CC1CCC(C(=O)NCc2cc3cc(Cl)cc(Cn4cnc5c(N)ncnc54)c3[nH]2)CC1 (centres unmarked) [Example 130, N-({7-[(6-amino-9H-purin-9-yl)methyl]-5-chloro-1H-indol-2-yl}methyl)-4-methylcyclohexanecarboxamide] | 2.39 µM |
| Nc1ncnc2c1ncn2Cc1cc(Cl)cc2cc(CNC(=O)CC3CCCCC3)[nH]c12 [Example 133, N-({7-[(6-amino-9H-purin-9-yl)methyl]-5-chloro-1H-indol-2-yl}methyl)-2-cyclohexylacetamide] | 31.9 µM |
| COC1CCC(C(=O)NCc2cc3cc(Cl)cc(Cn4cnc5c(N)ncnc54)c3[nH]2)CC1 (centres unmarked) [Example 134, N-({7-[(6-amino-9H-purin-9-yl)methyl]-5-chloro-1H-indol-2-yl}methyl)-4-methoxycyclohexanecarboxamide] | 1.27 µM |
| Nc1ncnc2c1ncn2Cc1cc(Cl)cc2cc(CNC(=O)C34CC5CC(CC(C5)C3)C4)[nH]c12 [Example 136, N-({7-[(6-amino-9H-purin-9-yl)methyl]-5-chloro-1H-indol-2-yl}methyl)tricyclo[3.3.1.1^3,7]decane-1-carboxamide] | 10.5 µM |
| Nc1ncnc2c1ncn2Cc1cc(Cl)cc2cc(CNC(=O)c3cnsc3)[nH]c12 [Example 139, N-({7-[(6-amino-9H-purin-9-yl)methyl]-5-chloro-1H-indol-2-yl}methyl)-1,2-thiazole-4-carboxamide] | 0.767 µM |

Further compounds by falling IC50, results first:

| IC50 | SMILES |
| --- | --- |
| 18.4 µM | Nc1ncnc2c1ncn2Cc1cc(Cl)cc2cc(CNC(=O)[C@H]3CCC(=O)N3)[nH]c12 [Example 118, (2R)—N-({7-[(6-amino-9H-purin-9-yl)methyl]-5-chloro-1H-indol-2-yl}methyl)-5-oxopyrrolidine-2-carboxamide] |
| 6.41 µM | Nc1ncnc2c1ncn2Cc1cc(Cl)cc2cc(CNC(=O)C3CCCC3)[nH]c12 [Example 119, N-({7-[(6-amino-9H-purin-9-yl)methyl]-5-chloro-1H-indol-2-yl}methyl)cyclopentanecarboxamide] |
| 6.25 µM | CC1CCCCC1C(=O)NCc1cc2cc(Cl)cc(Cn3cnc4c(N)ncnc43)c2[nH]1 (centres unmarked) [Example 132, N-({7-[(6-amino-9H-purin-9-yl)methyl]-5-chloro-1H-indol-2-yl}methyl)-2-methylcyclohexanecarboxamide] |
| 6.09 µM | Nc1ncnc2c1ncn2Cc1cc(Cl)cc2cc(CNC(=O)c3cscn3)[nH]c12 [Example 140, N-({7-[(6-amino-9H-purin-9-yl)methyl]-5-chloro-1H-indol-2-yl}methyl)-1,3-thiazole-4-carboxamide] |
| 4.77 µM | Nc1ncnc2c1ncn2Cc1cc(Cl)cc2cc(CNC(=O)CCN3CCCC3)[nH]c12 [Example 122, N-({7-[(6-amino-9H-purin-9-yl)methyl]-5-chloro-1H-indol-2-yl}methyl)-3-(pyrrolidin-1-yl)propanamide] |
| 4.62 µM | Nc1ncnc2c1ncn2Cc1cc(Cl)cc2cc(CN3CCS(=O)(=O)CC3)[nH]c12 [Example 125, 9-({5-chloro-2-[(1,1-dioxidothiomorpholin-4-yl)methyl]-1H-indol-7-yl}methyl)-9H-purin-6-amine] |
| 4.54 µM | Nc1ncnc2c1ncn2Cc1cc(Cl)cc2cc(CNC(=O)CCN3CCCCC3)[nH]c12 [Example 135, N-({7-[(6-amino-9H-purin-9-yl)methyl]-5-chloro-1H-indol-2-yl}methyl)-3-(piperidin-1-yl)propanamide] |
| 3.53 µM | Nc1ncnc2c1ncn2Cc1cc(Cl)cc2cc(CNC(=O)[C@@H]3CCCN3)[nH]c12 [Example 115, (2S)—N-({7-[(6-amino-9H-purin-9-yl)methyl]-5-chloro-1H-indol-2-yl}methyl)pyrrolidine-2-carboxamide] |
| 3.34 µM | Nc1ncnc2c1ncn2Cc1cc(Cl)cc2cc(CNC(=O)C3CCCCC3)[nH]c12 [Example 128, N-({7-[(6-amino-9H-purin-9-yl)methyl]-5-chloro-1H-indol-2-yl}methyl)cyclohexanecarboxamide] |
| 3.23 µM | CC1CCCC(C(=O)NCc2cc3cc(Cl)cc(Cn4cnc5c(N)ncnc54)c3[nH]2)C1 (centres unmarked) [Example 131, N-({7-[(6-amino-9H-purin-9-yl)methyl]-5-chloro-1H-indol-2-yl}methyl)-3-methylcyclohexanecarboxamide] |
| 2.23 µM | Nc1ncnc2c1ncn2Cc1cc(Cl)cc2cc(CNC(=O)C3CCOCC3)[nH]c12 [Example 126, N-({7-[(6-amino-9H-purin-9-yl)methyl]-5-chloro-1H-indol-2-yl}methyl)tetrahydro-2H-pyran-4-carboxamide] |
| 2.04 µM | Nc1ncnc2c1ncn2Cc1cc(Cl)cc2cc(CNC(=O)c3ccns3)[nH]c12 [Example 137, N-({7-[(6-amino-9H-purin-9-yl)methyl]-5-chloro-1H-indol-2-yl}methyl)-1,2-thiazole-5-carboxamide] |
| 1.64 µM | Nc1ncnc2c1ncn2Cc1cc(Cl)cc2cc(CNC(=O)c3cncs3)[nH]c12 [Example 138, N-({7-[(6-amino-9H-purin-9-yl)methyl]-5-chloro-1H-indol-2-yl}methyl)-1,3-thiazole-5-carboxamide] |
| 1.49 µM | Nc1ncnc2c1ncn2Cc1cc(Cl)cc2cc(CNC(=O)CN3CCCC3)[nH]c12 [Example 120, N-({7-[(6-amino-9H-purin-9-yl)methyl]-5-chloro-1H-indol-2-yl}methyl)-2-(pyrrolidin-1-yl)acetamide] |
